Measurements from publication PMC4026327 (Nature Communications, 2014).

Legend:
Details in all cases: read-out: Melibiose displacement of D ^ 2 G (IC 50); 10 μM D2G, 20 mM NaCl, 100 mM KPi pH 7.5
MelBSt (WT) [1] = biological target: MelBSt (WT) (Salmonella enterica, UniProt P30878, L5M/R295C)
MelBSt (WT) [2] = biological target: MelBSt (WT) (Salmonella enterica, UniProt P30878, L5M)
MelBSt (WT) [3] = biological target: MelBSt (WT) (Salmonella enterica, UniProt P30878, L5M/R141C)
MelBSt (WT) [4] = biological target: MelBSt (WT) (Salmonella enterica, UniProt P30878, L5M/R363C)

Work on OC[C@H]1O[C@H](OC[C@H]2OC(O)[C@H](O)[C@@H](O)[C@@H]2O)[C@H](O)[C@@H](O)[C@H]1O (stereo partly shown) [melibiose] yielded an IC50 (MelBSt (WT) [1]) of 4.04 ± 0.42 mM, an IC50 (MelBSt (WT) [2]) of 2.65 ± 0.8 mM and an IC50 (MelBSt (WT) [3]) of 5.93 ± 1.61 mM. It also gave an IC50 (MelBSt (WT) [4]) of 2.83 ± 0.57 mM.
